US7235533B2, “Compounds and their uses” (Rodaris Pharmaceuticals Limited, priority 2000, dated 2007)

How the values were obtained:
PKA = PKA (Homo sapiens, UniProt P17612); assay: PKA inhibition assay; type: biochemical
Description: (§1) Methods for obtaining A-type and P-type mediators are set out in Caro et al, 1997, and in WO98/11116 and WO98/11117. Protocols for determining characteristic IPG biological activities such as PDH activation, PKA inhibition, acetylCoA activation, fructose-1,6-bis-phosphatase activity and lipogenesis are well known in the art or provided in the experimental section below.
(§2) The compounds of the invention can be tested for one or more the characteristic IPG-P and/or IPG-A activities mentioned above to determine whether they will be suitable for use a IPG mimetics or antagonists. Preferred assays measure the effect of the compounds on PDH phosphatase, PKA or lipogenesis. Protocols for these assays are provided in Caro et al^[14].

PDH phosphatase = molecular target: T1, PDH phosphatase (Homo sapiens, UniProt Q9P0J1); assay: PDH activation assay; type: biochemical; details: 100 μM compound
T1 sequence (Q9P0J1 72-537): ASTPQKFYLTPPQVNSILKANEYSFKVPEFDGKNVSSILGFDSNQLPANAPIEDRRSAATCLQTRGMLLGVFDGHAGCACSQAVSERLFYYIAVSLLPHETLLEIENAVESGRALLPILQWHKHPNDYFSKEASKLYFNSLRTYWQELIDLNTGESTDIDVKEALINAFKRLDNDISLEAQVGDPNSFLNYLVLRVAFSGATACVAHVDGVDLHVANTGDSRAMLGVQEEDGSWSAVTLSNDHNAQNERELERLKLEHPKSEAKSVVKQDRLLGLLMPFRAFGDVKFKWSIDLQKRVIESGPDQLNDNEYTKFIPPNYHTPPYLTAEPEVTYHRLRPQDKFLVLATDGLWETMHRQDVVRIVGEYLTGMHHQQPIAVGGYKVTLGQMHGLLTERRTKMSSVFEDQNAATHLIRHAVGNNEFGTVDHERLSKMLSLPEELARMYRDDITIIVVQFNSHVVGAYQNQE
Description: as §1, §2

Row | Molecule | PKA inhibition (PKA; 0.1 μM compound) [%] | PKA inhibition (PKA; 10 μM compound) [%] | PKA inhibition (PKA; 1.0 μM compound) [%] | PDH activation (PDH phosphatase) [%]
1 | 6-O-(2-Ammonio-2-deoxy-β-D-glucopyranosyl)-D-chiro-inositol-1-phosphate [RGL1019] | 32 | 31 | – | –
2 | NC1C(OC2C(O)C(O)C(O)C(O)C2O)OC(COP(=O)(O)O)C(O)C1O [RGL1023, 1′-D-6-O-(2′-amino-2′-deoxy-6′-phosphate-α-D-glucopyranosyl)-myo-inositol] | – | – | – | 14
3 | CO[C@H]1[C@H](O)[C@@H](O)[C@@H](O[C@H]2O[C@H](CO)[C@@H](O)[C@H](O)[C@H]2N)[C@H](O)[C@@H]1O [RGL1024, O-(2-amino-2-deoxy-D-glucopyranosyl)-α(1,6)-D-3-O-methyl-chiro-inositol] | 17 | 2 | 34 | 65
4 | N[C@H]1[C@@H](O[C@H]2[C@H](O)[C@H](O)[C@H](O)[C@@H](O)[C@@H]2O)O[C@H](CO)[C@@H](O)[C@@H]1OP(=O)(O)O [RGL1029, 1′-D-6-O-(2′-amino-2′-deoxy-3′-phosphate-α-D-glucopyranosyl)-myo-inositol] | 59 | 33 | – | 361
5 | O-(2-amino-2deoxy-D-galactopyranosyl)-α(1,6)-D-3-O-methyl-chiro-inositol [RGL1025] | 48 | – | −13 | 17

Now from value to molecule:

Row | PKA inhibition (PKA; 0.1 μM compound) [%] | PKA inhibition (PKA; 10 μM compound) [%] | PKA inhibition (PKA; 1.0 μM compound) [%] | PDH activation (PDH phosphatase) [%] | Molecule
6 | 14 | 12 | 15 | 38 | COC1C(O)C(O)C(OC2OC(CO)C(O)C(O)C2N)C(O)C1O [RGL1015, O-(2-amino-2-deoxy-D-glucopyranosyl)-β(1,6)-3-O-methyl-chiro-inositol]
7 | 19 | – | – | – | NC1C(OC2C(O)C(O)C(O)C(O)C2O)OC(CO)C(O)C1O [RGL1018, 6-O-(2-Amino-2-deoxy-β-D-glucopyranosyl)-D-chiro-inositol]
8 | 18 | 10 | – | 132 | N[C@H]1[C@@H](O[C@H]2[C@H](O)[C@H](O)[C@H](O)[C@@H](O)[C@@H]2O)O[C@H](CO)[C@@H](OP(=O)(O)O)[C@@H]1O [RGL1027, 1′-D-6-O-(2′-amino-2′-deoxy-4′-phosphate-α-D-glucopyranosyl)-myo-inositol]
